Laboratory results: patent publication US11806393B2, “Flavivirus peptide sequences, epitopes, and methods and uses thereof” (priority 2017, dated 2023)

Each substance was assayed on CD8+ T cells (assay: IFNγ-ELISPOT of predicted H-2b-binding ZIKV peptides). Conditions: CD8+ T cells of mice infected with MR766 or FSS13025, day 7; positive: SFC per 10^6 CD8+ T cells ≥20 and stimulation index ≥2.
Assay type: cell-based, mouse
Procedure: CD8^+ T cells were isolated by magnetic bead positive selection (Miltenyi Biotec, Germany). A total of 2×10^5 CD8^+ T cells were stimulated with 1×10^5 LPS-blast cells as antigen presenting cells (APCs) and 10 μg of individual ZIKV-derived peptide in 96-well flat-bottom plates (IMMOBILON™-P; Millipore, MA) coated with anti-mouse IFNγ monoclonal antibody (mAb) (clone AN18; Mabtech, Sweden) in triplicate. IFNγ-ELISPOT was performed as previously detailed (Elong Ngono et al., 2016). Positive peptides were those with a number of spot-forming cells (SFC) per 10^6 CD8^+ T cells ≥20 and a stimulation index ≥2 based on the negative control (DMSO). […]
The following results are with reference to FIG. 3A and FIG. 3B, where five-week-old LysMCre^+IFNAR^fl/fl were infected retro-orbitally with 10^4 FFU of ZIKV MR766 or FSS13025. […] A total of 244 peptides from ZIKV strains predicted to bind H-2Kb and H-2db with high affinity were screened. Two independent experiments for each ZIKV strain (n=5 mice for each experiment) were performed in triplicate per peptide. The data are expressed as the mean of spot forming cells (SFC) per 10^6 CD8^+ T cells, and error bars are represented as SEM. One-way ANOVA was used to compare the mean of each peptide with the control (DMSO) ([…]). […] The dotted line corresponds to the average amount of IFNγ produced by MOCK mice when stimulated with positive ZIKV-derived peptides (0.19% of IFNγ+CD8^+ T cells).
With 25 (SNRDFVEGM) [compound 25] the “Strains (ZIKV strain for which the peptide induced a positive T cell response, IFNγ-ELISPOT)” value (“Strains” below) was “MR766/FSS”.
In the case of 26 (SQLTPLTLI) [compound 26], the “Strains” value was “MR766/FSS”.
With 27 (SVKKNLPFVM) [compound 27] the “Strains” value was “MR766/FSS”.

What follows are substances tested on CD8+ T cells (assay: IFNγ ELISPOT, ZIKV-infected Ifnar-/- HLA-B*0702 transgenic mice). Conditions: HLA-B*0702 mice, 7 days after 1×10^2 FFU ZIKV FSS13025.
Assay type: cell-based, mouse
Procedure: (§1) Two ZIKV strains, MR766 (Uganda, 1947) and FSS13025 (Cambodia, 2010), were obtained from the World Reference Center for Emerging Viruses and Arboviruses (WRCEVA). The mouse-adapted DENV2 strain S221 is a triple-plaque purified clone derived from DENV2 D2S1038. Both ZIKV and DENV2 were amplified in C6/36 mosquito cells, and viral titers were measured using baby hamster kidney (BHK)-21 cell-based focus forming assay (FFA). For epitope screening, 5-week old mice (female or male) were infected retro-orbitally (R.O.) with either 1×102 FFU of ZIKV FSS13025 or ZIKV MR766, or 2×10^4 FFU of DENV2 S221 in 200 μl 10% FBS/PBS. Seven days after infection, CD8^+ T cells were isolated from splenocytes and used for ELISPOT assay, while the splenocytes were directly used for ICS assay. Additionally, 5-week old mice were inoculated I.P. with 2×10^3 FFU of DENV2 S221 for 4 weeks.
CD8^+ T cells were isolated from splenocytes using magnetic bead positive selection (Miltenyi Biotec, Germany) 7 days after virus infection. 2×10^5 CD8^+ T cells were stimulated with 1×10^5 LPS-blasts loaded with 10 μg of individual peptide in 96-well flat-bottom plates (IMMOBILON™-P; Millipore, Bedford, Mass.) that were coated with anti-IFNγ mAb (clone AN18; Mabtech, Stockholm, Sweden) in triplicate. Concanavalin A (ConA) was used as positive control. After 20 hours of incubation, biotinylated anti-mouse IFNγ mAb (R4-6A2; Mabtech), followed by ABC peroxidase (Vector Laboratories, Burlingame, Calif., USA) and then 3-amino-9-ethylcarbazole (Sigma-Aldrich, St. Louis, Mo., USA) were added into the wells. […] A peptide inducing a magnitude of >500 SFCs/10^6 CD8^+ T cells was considered as an immunodominant peptide.
Two independent experiments performed in triplicate were averaged and the error bars represent the SEM. The data are expressed as the mean number of spot forming cells (SFC) per 10^6 CD8^+ T cells. The criteria for positivity were net SFC per 10^6 cells of >20, and a stimulation index of >2.0 when compared with the negative control. Dotted lines represent the cutoff value. * Indicates a positive response. […] ConA denotes Concanavalin A.
In the case of “FPDSNSPINI (FPDSNSPIM) [FSS/MR-NS3309-317]”, the “SFC/10^6 CD8+ T cells, FSS13025” value was 335 SFC/10^6 CD8+ T cells.
With IPYLGKREDL [FSS/MR-NS5587-596] the “SFC/10^6 CD8+ T cells, FSS13025” value was 178 SFC/10^6 CD8+ T cells.
For LPSHSTRKL [FSS/MR-M4-12], the “SFC/10^6 CD8+ T cells, FSS13025” value was 235 SFC/10^6 CD8+ T cells.
In the case of RPRTTVVAENI [FSS/MR-NS5605-614], the “SFC/10^6 CD8+ T cells, FSS13025” value was 383 SFC/10^6 CD8+ T cells.
RVIDSRRCL [FSS/MR-NS3405-413] was tested, and the “SFC/10^6 CD8+ T cells, FSS13025” value was 236 SFC/10^6 CD8+ T cells.
With SPFGGLKRLPA [FSS-C25-35] the “SFC/10^6 CD8+ T cells, FSS13025” value was 802 SFC/10^6 CD8+ T cells.
In the case of SPRAEATL [FSS/MR-E173-180], the “SFC/10^6 CD8+ T cells, FSS13025” value was 167 SFC/10^6 CD8+ T cells.
For TPHWNNKEAL [FSS/MR-E233-242], the “SFC/10^6 CD8+ T cells, FSS13025” value was 158 SFC/10^6 CD8+ T cells.
For TPLARGTL [FSS/MR-NS2A148-155], the “SFC/10^6 CD8+ T cells, FSS13025” value was 706 SFC/10^6 CD8+ T cells.
VPRTDNIAL [MR-NS2A133-141] was tested, and the “SFC/10^6 CD8+ T cells, FSS13025” value was 648 SFC/10^6 CD8+ T cells.

Same assay, conditions: HLA-B*0702 mice, 7 days after 1×10^2 FFU ZIKV MR766
For AAGKRGAAL [MR-NS3596-NS4A1], the “SFC/10^6 CD8+ T cells, MR766” value was 148 SFC/10^6 CD8+ T cells.
In the case of “FPDSNSPINI (FPDSNSPIM) [FSS/MR-NS3309-317]”, the “SFC/10^6 CD8+ T cells, MR766” value was 565 SFC/10^6 CD8+ T cells.
In the case of GPCKVPAQMAV [FSS-E337-347], the “SFC/10^6 CD8+ T cells, MR766” value was 271 SFC/10^6 CD8+ T cells.
With GPQRLPVPV [FSS/MR-NS199-107] the “SFC/10^6 CD8+ T cells, MR766” value was 103 SFC/10^6 CD8+ T cells.
With IPYLGKREDL [FSS/MR-NS5587-596] the “SFC/10^6 CD8+ T cells, MR766” value was 438 SFC/10^6 CD8+ T cells.
With LPILAALTPL [MR-NS2A141-150] the “SFC/10^6 CD8+ T cells, MR766” value was 540 SFC/10^6 CD8+ T cells.
LPSHSTRKL [FSS/MR-M4-12] was tested, and the “SFC/10^6 CD8+ T cells, MR766” value was 398 SFC/10^6 CD8+ T cells.
RPAEGGKTVM [MR-NS5332-341] was tested, and the “SFC/10^6 CD8+ T cells, MR766” value was 277 SFC/10^6 CD8+ T cells.
With RPASAWAIYA [FSS/MR-NS4B35-44] the “SFC/10^6 CD8+ T cells, MR766” value was 180 SFC/10^6 CD8+ T cells.
In the case of RPEADKVAAI [FSS/MR-NS3492-501], the “SFC/10^6 CD8+ T cells, MR766” value was 157 SFC/10^6 CD8+ T cells.
With RPRTTVVAENI [FSS/MR-NS5605-614] the “SFC/10^6 CD8+ T cells, MR766” value was 641 SFC/10^6 CD8+ T cells.
For RPYKAAAAQL [FSS/MR-NS4A36-45], the “SFC/10^6 CD8+ T cells, MR766” value was 120 SFC/10^6 CD8+ T cells.
In the case of RVIDSRRCL [FSS/MR-NS3405-413], the “SFC/10^6 CD8+ T cells, MR766” value was 718 SFC/10^6 CD8+ T cells.
SPQDNQMAI [FSS/MR-NS4A125-133] was tested, and the “SFC/10^6 CD8+ T cells, MR766” value was 159 SFC/10^6 CD8+ T cells.
For SPRAEATL [FSS/MR-E173-180], the “SFC/10^6 CD8+ T cells, MR766” value was 108 SFC/10^6 CD8+ T cells.
In the case of TPHWNNKEAL [FSS/MR-E233-242], the “SFC/10^6 CD8+ T cells, MR766” value was 218 SFC/10^6 CD8+ T cells.
TPLARGTL [FSS/MR-NS2A148-155] was tested, and the “SFC/10^6 CD8+ T cells, MR766” value was 1055 SFC/10^6 CD8+ T cells.
For TPLTLIVAIIL [FSS/MR-NS4B105-115], the “SFC/10^6 CD8+ T cells, MR766” value was 163 SFC/10^6 CD8+ T cells.
For TPNSPRAEA [FSS/MR-E170-178], the “SFC/10^6 CD8+ T cells, MR766” value was 155 SFC/10^6 CD8+ T cells.
In the case of VPRTDNIAL [MR-NS2A133-141], the “SFC/10^6 CD8+ T cells, MR766” value was 776 SFC/10^6 CD8+ T cells.

Same assay, conditions: HLA-B*0702 mice; immunodominant: >500 SFCs/10^6 CD8+ T cells; shared by both ZIKV strains
With TPLARGTL [FSS/MR-NS2A148-155] the “immunodominance in IFNγ ELISPOT” value was “immunodominant”.
VPRTDNIAL [MR-NS2A133-141] was tested, and the “immunodominance in IFNγ ELISPOT” value was “immunodominant”.

Each substance was assayed on CD3+CD8+ T cells (assay: IFNγ ICS, ZIKV-infected Ifnar-/- HLA-B*0702 transgenic mice). Conditions: HLA-B*0702 mice, 7 days after ZIKV FSS13025, ICS.
Assay type: cell-based, mouse
Procedure: as §1
Spleens were harvested from virus-infected, mock-immunized, or peptide-immunized mice. 1×10^6 splenocytes were plated in each well of 96-well U-bottom plates and stimulated with individual peptide (10 μg crude peptide or 1 μg pure peptide per well) for 6 hours. Five hours before the end of incubation, Brefeldin A (GolgiPlug; BD Biosciences) and PE-conjugated anti CD107a mAb (clone 1D4B, eBioscience) were added to the cells. Splenocytes stimulated with PMA-ionomycin were used as the positive control, while cells without any stimulation were the negative control. […] Samples were run using an LSR™ II (BD Biosciences) and analyzed using FLOWJO™ software X 10.0.7 (Tree Star, Ashland, Oreg.).
Data represent the average of two independent experiments and are expressed as mean±SEM. *, P<0.05; **, P<0.01; Two-tailed Mann-Whitney test. P/I denotes PMA/ionomycin.
RPRTTVVAENI [FSS/MR-NS5605-614] was tested, and the “% IFNγ+ CD8+ T cells, FSS13025” value was “(0.22%)”.
For RVIDSRRCL [FSS/MR-NS3405-413], the “% IFNγ+ CD8+ T cells, FSS13025” value was “(0.23%)”.
In the case of SPFGGLKRLPA [FSS-C25-35], the “% IFNγ+ CD8+ T cells, FSS13025” value was “(0.79%)”.
With TPLARGTL [FSS/MR-NS2A148-155] the “% IFNγ+ CD8+ T cells, FSS13025” value was “(0.28%)”.
With VPRTDNIAL [MR-NS2A133-141] the “% IFNγ+ CD8+ T cells, FSS13025” value was “(0.54%)”.

Same assay, conditions: HLA-B*0702 mice, 7 days after ZIKV MR766, ICS
With “FPDSNSPINI (FPDSNSPIM) [FSS/MR-NS3309-317]” the “% IFNγ+ CD8+ T cells, MR766” value was “(0.49%)”.
With IPYLGKREDL [FSS/MR-NS5587-596] the “% IFNγ+ CD8+ T cells, MR766” value was “(0.26%)”.
LPILAALTPL [MR-NS2A141-150] was tested, and the “% IFNγ+ CD8+ T cells, MR766” value was “(0.28%)”.
With LPSHSTRKL [FSS/MR-M4-12] the “% IFNγ+ CD8+ T cells, MR766” value was “(0.28%)”.
In the case of RPAEGGKTVM [MR-NS5332-341], the “% IFNγ+ CD8+ T cells, MR766” value was “(0.35%)”.
For RPASAWAIYA [FSS/MR-NS4B35-44], the “% IFNγ+ CD8+ T cells, MR766” value was “(0.49%)”.
In the case of RPRTTVVAENI [FSS/MR-NS5605-614], the “% IFNγ+ CD8+ T cells, MR766” value was “(0.55%)”.
With RVIDSRRCL [FSS/MR-NS3405-413] the “% IFNγ+ CD8+ T cells, MR766” value was “(0.4%)”.
In the case of TPHWNNKEAL [FSS/MR-E233-242], the “% IFNγ+ CD8+ T cells, MR766” value was “(0.3%)”.
For TPLARGTL [FSS/MR-NS2A148-155], the “% IFNγ+ CD8+ T cells, MR766” value was “(0.87%)”.
With TPLTLIVAIIL [FSS/MR-NS4B105-115] the “% IFNγ+ CD8+ T cells, MR766” value was “(0.4%)”.
With VPRTDNIAL [MR-NS2A133-141] the “% IFNγ+ CD8+ T cells, MR766” value was “(1.39%)”.

Same assay, conditions: ZIKV FSS13025-infected mice
SPFGGLKRLPA [FSS-C25-35] was tested, and the “simultaneous IFNγ and TNFα production by peptide-stimulated CD8+ T cells” value was “stimulated production of both IFNγ and TNFα”.

Same assay, conditions: ZIKV MR766-infected mice
For TPLARGTL [FSS/MR-NS2A148-155], the “simultaneous IFNγ and TNFα production by peptide-stimulated CD8+ T cells” value was “stimulated simultaneous production of IFNγ and TNFα”.
